Experimental data taken from PubChem BioAssay (NCI).
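96-well plates; 48 h exposure; 5 concentrations. Endpoints by linear interpolation between flanking doses. Not reached: highest tested concentration assigned. Here, GI50 denotes the concentration required for 50% inhibition of growth. TGI: total growth inhibition.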

Legend:
Experiment in all cases: NCI anticancer screen, dose series, 48 h
[1] = system: RPMI-8226 leukemia
[2] = system: CAKI-1 renal
[3] = system: SF-268 CNS
[4] = system: HS 578T breast
[5] = system: MDA-MB-435
[6] = system: UACC-257 melanoma
[7] = system: RXF 393 renal
[8] = system: SNB-19 CNS
[9] = system: TK-10 renal
[10] = system: M14 melanoma
[11] = system: A498 renal
[12] = system: HCT-116 colon
[13] = system: OVCAR-4 ovarian
[14] = system: MOLT-4 leukemia
[15] = system: EKVX NSCLC
[16] = system: HL-60(TB) leukemia
[17] = system: HOP-92 NSCLC
[18] = system: SK-MEL-28 melanoma
[19] = system: OVCAR-3 ovarian
[20] = system: HCT-15 colon
[21] = system: SK-MEL-2 melanoma
[22] = system: CCRF-CEM leukemia
[23] = system: MDA-MB-231 breast
[24] = system: PC-3 prostate
[25] = system: BT-549 breast
[26] = system: SF-295 CNS
[27] = system: A549 NSCLC
[28] = system: MALME-3M melanoma
[29] = system: NCI-H460 lung
[30] = system: SN12C renal
[31] = system: OVCAR-8 ovarian
[32] = system: SR leukemia
[33] = system: HOP-62 NSCLC
[34] = system: KM12 colon
[35] = system: 786-0 renal
[36] = system: U251 CNS
[37] = system: ACHN renal
[38] = system: SW-620 colon
[39] = system: HCC-2998 colon
[40] = system: MCF7 breast
[41] = system: UACC-62 melanoma
[42] = system: NCI-H522 lung
[43] = system: LOX IMVI melanoma
[44] = system: HT29 colon
[45] = system: UO-31 renal
[46] = system: T-47D breast
[47] = system: SF-539 CNS
[48] = system: NCI/ADR-RES ovarian
[49] = system: DU-145 prostate
[50] = system: K-562 leukemia
[51] = system: IGROV1 ovarian
[52] = system: OVCAR-5 ovarian
[53] = system: NCI-H23 lung
[54] = system: SNB-75 CNS

c1ccc([P+](c2ccccc2)(c2ccccc2)c2ccc3c4ccc([P+](c5ccccc5)(c5ccccc5)c5ccccc5)c5cccc(c6cccc2c63)c54)cc1
GI50 [1]: 0.647 µM | TGI [1]: 4.16 µM | GI50 [2]: 6.15 µM | TGI [2]: > 100 µM | GI50 [3]: 0.995 µM | TGI [3]: 20 µM | GI50 [4]: 0.574 µM | TGI [4]: 5.49 µM | GI50 [5]: 0.799 µM | TGI [5]: 4.21 µM | GI50 [6]: 2.12 µM | TGI [6]: 8.47 µM | GI50 [7]: 2.79 µM | TGI [7]: 25.3 µM | GI50 [8]: 0.714 µM | TGI [8]: 13.1 µM | GI50 [9]: 4.18 µM | TGI [9]: > 100 µM | GI50 [10]: 1.39 µM | TGI [10]: 7.48 µM | GI50 [11]: 0.889 µM | TGI [11]: 6.79 µM | GI50 [12]: 1.54 µM | TGI [12]: 10.4 µM | GI50 [13]: 1.89 µM | TGI [13]: 30.8 µM | GI50 [14]: 2.37 µM | TGI [14]: 19.3 µM | GI50 [15]: 1.69 µM | TGI [15]: 35.2 µM | GI50 [16]: 2.38 µM | TGI [16]: 6.25 µM | GI50 [17]: 1.18 µM | TGI [17]: 5.44 µM | GI50 [18]: 1.67 µM | TGI [18]: 6.15 µM | GI50 [19]: 1.91 µM | TGI [19]: 11.9 µM | GI50 [20]: 5.89 µM | TGI [20]: > 100 µM | GI50 [21]: 2.57 µM | TGI [21]: 7.58 µM | GI50 [22]: 2.13 µM | TGI [22]: 33.3 µM | GI50 [23]: 2.22 µM | TGI [23]: 9.98 µM | GI50 [24]: 1.65 µM | TGI [24]: 14.3 µM | GI50 [25]: 0.455 µM | TGI [25]: 2.69 µM | GI50 [26]: 1.24 µM | TGI [26]: 5.36 µM | GI50 [27]: 0.986 µM | TGI [27]: > 100 µM | GI50 [28]: 0.412 µM | TGI [28]: 2.56 µM | GI50 [29]: 0.692 µM | TGI [29]: 3.94 µM | GI50 [30]: 1.09 µM | TGI [30]: 13.7 µM | GI50 [31]: 1.32 µM | TGI [31]: > 100 µM | GI50 [32]: 1.1 µM | TGI [32]: > 100 µM | GI50 [33]: 0.931 µM | TGI [33]: 25.8 µM | GI50 [34]: 0.743 µM | TGI [34]: 3.1 µM | GI50 [35]: 3.04 µM | TGI [35]: 28.8 µM | GI50 [36]: 0.445 µM | TGI [36]: 17.9 µM | GI50 [37]: 3.79 µM | TGI [37]: > 100 µM | GI50 [38]: 1.98 µM | TGI [38]: 10.8 µM | GI50 [39]: 2.28 µM | TGI [39]: 8.51 µM | GI50 [40]: 1.25 µM | TGI [40]: 14.2 µM | GI50 [41]: 1.47 µM | TGI [41]: 4.64 µM | GI50 [42]: 1.24 µM | TGI [42]: 13.7 µM | GI50 [43]: 2.67 µM | TGI [43]: 20.7 µM | GI50 [44]: 1.64 µM | TGI [44]: 13.3 µM | GI50 [45]: 2.73 µM | TGI [45]: 78.3 µM | GI50 [46]: 0.621 µM | TGI [46]: 24.6 µM | GI50 [47]: 0.477 µM | TGI [47]: 2.32 µM | GI50 [48]: 9.41 µM | TGI [48]: > 100 µM | GI50 [49]: 0.811 µM | TGI [49]: 13.4 µM | GI50 [50]: 0.506 µM | TGI [50]: > 100 µM | GI50 [51]: 1.41 µM | TGI [51]: 7.47 µM | GI50 [52]: 2.82 µM | TGI [52]: > 100 µM | GI50 [53]: 2.1 µM | TGI [53]: 13.5 µM | GI50 [54]: 0.435 µM | TGI [54]: 4.17 µM
